Assays:
[1] = Compound was evaluated for the kinetic parameter Vmax (maximum velocity); type: ADME
[2] = Compound was evaluated for the kinetic parameter (Km); type: ADME

Vmax [1]: 18.3 pM/min/mg | Km [2]: 1.65 µM
SMILES: N[C@@H](CCC(=O)O)C(=O)O [GLUTAMIC ACID]

From ChEMBL document CHEMBL1131969, “Quinoline-2,4-dicarboxylic acids: synthesis and evaluation as inhibitors of the glutamate vesicular transport system” (Bioorg Med Chem Lett, 1999)
